Data from paper PMC11748363, “Antimicrobial and Antiproliferative Properties of 2‐Phenyl‐N‐(Pyridin‐2‐yl)acetamides” (Chemical Biology & Drug Design, 2025).
pIC50: −log10 of the molar value. In brackets after ≈: the same amount, converted by molar mass. Like-named read-outs stand apart in the source and are kept apart here.

Experiments:
[1] = test system: Mycobacterium tuberculosis H37Ra; experiment: Antimycobacterial microdilution broth MIC (resazurin), Mtb H37Ra; assay type: cell-based; conditions: for MIC: Mycobacterium tuberculosis, H37RA, read-out: MIC Mtb H37Ra; for SI (selectivity index): SI = HepG2 IC50 (μM)/MIC MtbH37Ra (μM), calculated for compounds with MIC ≤ 31.25 μg/mL
[2] = test system: Mycolicibacterium smegmatis DSM 43465; experiment: Antimycobacterial microdilution broth MIC (resazurin), M. smegmatis; assay type: cell-based; conditions: DSM43465, read-out: MIC M. smegmatis
[3] = test system: Mycolicibacterium aurum DSM 43999; experiment: Antimycobacterial microdilution broth MIC (resazurin), M. aurum; assay type: cell-based; conditions: DSM43999, read-out: MIC M. aurum
[4] = test system: HepG2 cell line; experiment: Cytotoxicity CellTiter 96, HepG2; assay type: cell-based, human; conditions: Homo sapiens, HepG2, 24 h, 24 h incubation; ^c compound precipitated in the testing medium; ^d over the limit of tested concentrations
[5] = test system: Staphylococcus aureus CCM 4223, ATCC 29213; experiment: Antibacterial microdilution broth MIC, SA; assay type: cell-based; conditions: Staphylococcus aureus
[6] = test system: Staphylococcus aureus subsp. aureus CCM 4750, ATCC 43300 (MRSA); experiment: Antibacterial microdilution broth MIC, MRSA; assay type: cell-based; conditions: Staphylococcus aureus
[7] = test system: Staphylococcus epidermidis CCM 4418, ATCC 12228; experiment: Antibacterial microdilution broth MIC, SE; assay type: cell-based
[8] = test system: Enterococcus faecalis CCM 4224, ATCC 29212; experiment: Antibacterial microdilution broth MIC, EF; assay type: cell-based
[9] = test system: Escherichia coli CCM 3954, ATCC 25922; experiment: Antibacterial microdilution broth MIC, EC; assay type: cell-based
[10] = test system: Acinetobacter baumannii DSM 30007, ATCC 19606; experiment: Antibacterial microdilution broth MIC, ACI; assay type: cell-based
[11] = test system: Pseudomonas aeruginosa CCM 3955, ATCC 27853; experiment: Antibacterial microdilution broth MIC, PA; assay type: cell-based
[12] = test system: Candida albicans CCM 8320, ATCC 24433; experiment: Antifungal microdilution broth MIC, CA
[13] = test system: Candida krusei CCM 8271, ATCC 6258; experiment: Antifungal microdilution broth MIC, CK; conditions: Pichia kudriavzevii
[14] = test system: Candida parapsilosis CCM 8260, ATCC 22019; experiment: Antifungal microdilution broth MIC, CP; conditions: Lodderomyces parapsilosis
[15] = test system: Candida tropicalis CCM 8264, ATCC 750; experiment: Antifungal microdilution broth MIC, CT
[16] = test system: Aspergillus fumigatus ATCC 204305; experiment: Antifungal microdilution broth MIC, AF
[17] = test system: Lichtheimia corymbifera CCM 8077; experiment: Antifungal microdilution broth MIC, LC
[18] = test system: Trichophyton interdigitale CCM 8377, ATCC 9533; experiment: Antifungal microdilution broth MIC, TI; conditions: Trichophyton interdigitale
[19] = test system: Aspergillus flavus CCM 8363; experiment: Antifungal microdilution broth MIC, AFla
[20] = test system: Klebsiella pneumoniae CCM 4415, ATCC 10031; experiment: Antibacterial microdilution broth MIC, KP
[21] = ATCC204305, 24 h, read-out: MIC AF 24h
[22] = ATCC204305, 48 h, read-out: MIC AF 48h
[23] = CCM8077, 24 h, read-out: MIC LC 24h
[24] = CCM8077, 48 h, read-out: MIC LC 48h
[25] = CCM8363, 24 h, read-out: MIC AFla 24h
[26] = CCM8363, 48 h, read-out: MIC AFla 48h

Compound | MIC ([1]; Calculated from MIC (μg/mL)) [µM] | MIC [1] [µg/mL] | MIC [2] [µg/mL] | MIC [3] [µg/mL] | pIC50 [4] | MIC ([5]; 24 h, read-out: MIC SA 24h) [µM] | MIC ([5]; 48 h, read-out: MIC SA 48h) [µM] | MIC ([6]; 24 h, read-out: MIC MRSA 24h) [µM] | MIC ([6]; 48 h, read-out: MIC MRSA 48h) [µM] | MIC ([7]; 24 h, read-out: MIC SE 24h) [µM] | MIC ([7]; 48 h, read-out: MIC SE 48h) [µM] | MIC ([8]; 24 h, read-out: MIC EF 24h) [µM] | MIC ([8]; 48 h, read-out: MIC EF 48h) [µM] | MIC ([9]; 24 h, read-out: MIC EC 24h) [µM] | MIC ([9]; 48 h, read-out: MIC EC 48h) [µM] | MIC ([10]; 24 h, read-out: MIC ACI 24h) [µM] | MIC ([10]; 48 h, read-out: MIC ACI 48h) [µM] | MIC ([11]; 24 h, read-out: MIC PA 24h) [µM] | MIC ([11]; 48 h, read-out: MIC PA 48h) [µM] | MIC ([12]; 24 h, read-out: MIC CA 24h) [µM] | also measured
O=C(Cc1ccccc1Cl)Nc1cccc(Cl)n1 [Compound 15, 2-(2-chlorophenyl)-N-(6-chloropyridin-2-yl)acetamide] | 111 | 31.2 | > 500 | 250 (≈ 889 µM) | < 4.00 | > 500 | > 500 | > 500 | > 500 | > 500 | > 500 | > 500 | > 500 | > 500 | > 500 | > 500 | > 500 | > 500 | > 500 | > 500 | SI (selectivity index) [1]: > 0.9; MIC ([12]; 48 h, read-out: MIC CA 48h): > 500 µM; MIC ([13]; 24 h, read-out: MIC CK 24h): 500 µM (≈ 141 µg/mL); MIC ([13]; 48 h, read-out: MIC CK 48h): 500 µM (≈ 141 µg/mL); MIC ([14]; 24 h, read-out: MIC CP 24h): > 500 µM; MIC ([14]; 48 h, read-out: MIC CP 48h): > 500 µM; MIC ([15]; 24 h, read-out: MIC CT 24h): > 500 µM; MIC ([15]; 48 h, read-out: MIC CT 48h): > 500 µM; MIC [16, 21]: > 500 µM; MIC [16, 22]: > 500 µM; MIC [17, 23]: > 500 µM; MIC [17, 24]: > 500 µM; MIC ([18]; 72 h, read-out: MIC TI 72h): 500 µM (≈ 141 µg/mL); MIC ([18]; 120 h, read-out: MIC TI 120h): 500 µM (≈ 141 µg/mL); MIC [19, 25]: > 500 µM; MIC [19, 26]: > 500 µM; MIC KP 24h [20]: > 500 µmol/L; MIC KP 48h [20]: > 500 µmol/L
O=C(Cc1cccc(Cl)c1)Nc1ccccn1 [Compound 16, 2-(3-chlorophenyl)-N-(pyridin-2-yl)acetamide] | 253 | 62.5 | > 500 | 250 (≈ 1010 µM) | < 3.60 | 500 (≈ 123 µg/mL) | 500 (≈ 123 µg/mL) | > 500 | > 500 | 125 (≈ 30.8 µg/mL) | 250 (≈ 61.7 µg/mL) | > 500 | > 500 | > 500 | > 500 | > 500 | > 500 | > 500 | > 500 | > 500 | MIC ([12]; 48 h, read-out: MIC CA 48h): > 500 µM; MIC ([13]; 24 h, read-out: MIC CK 24h): > 500 µM; MIC ([13]; 48 h, read-out: MIC CK 48h): > 500 µM; MIC ([14]; 24 h, read-out: MIC CP 24h): > 500 µM; MIC ([14]; 48 h, read-out: MIC CP 48h): > 500 µM; MIC ([15]; 24 h, read-out: MIC CT 24h): > 500 µM; MIC ([15]; 48 h, read-out: MIC CT 48h): > 500 µM; MIC [16, 21]: > 500 µM; MIC [16, 22]: > 500 µM; MIC [17, 23]: > 500 µM; MIC [17, 24]: > 500 µM; MIC ([18]; 72 h, read-out: MIC TI 72h): 500 µM (≈ 123 µg/mL); MIC ([18]; 120 h, read-out: MIC TI 120h): 500 µM (≈ 123 µg/mL); MIC [19, 25]: > 500 µM; MIC [19, 26]: > 500 µM; MIC KP 24h [20]: > 500 µmol/L; MIC KP 48h [20]: > 500 µmol/L
O=C(Cc1cccc(Cl)c1)Nc1cccc(Cl)n1 [Compound 18] | 55.6 | 15.6 | > 500 | 62.5 (≈ 222 µM) | < 4.00 | > 500 | > 500 | > 500 | > 500 | > 500 | > 500 | > 500 | > 500 | > 500 | > 500 | > 500 | > 500 | > 500 | > 500 | > 500 | SI (selectivity index) [1]: > 1.8; MIC ([12]; 48 h, read-out: MIC CA 48h): > 500 µM; MIC ([13]; 24 h, read-out: MIC CK 24h): > 500 µM; MIC ([13]; 48 h, read-out: MIC CK 48h): > 500 µM; MIC ([14]; 24 h, read-out: MIC CP 24h): > 500 µM; MIC ([14]; 48 h, read-out: MIC CP 48h): > 500 µM; MIC ([15]; 24 h, read-out: MIC CT 24h): > 500 µM; MIC ([15]; 48 h, read-out: MIC CT 48h): > 500 µM; MIC [16, 21]: > 500 µM; MIC [16, 22]: > 500 µM; MIC [17, 23]: > 500 µM; MIC [17, 24]: > 500 µM; MIC ([18]; 72 h, read-out: MIC TI 72h): 500 µM (≈ 141 µg/mL); MIC ([18]; 120 h, read-out: MIC TI 120h): 500 µM (≈ 141 µg/mL); MIC [19, 25]: > 500 µM; MIC [19, 26]: > 500 µM; MIC KP 24h [20]: > 500 µmol/L; MIC KP 48h [20]: > 500 µmol/L
